Experimental data taken from patent US20120322812A1, “RUTAECARPINE DERIVATIVES FOR TREATING INSOMNIA” (priority 2011, published 2012).

Tested on: CYP1A2
Test: MEROD assay in live Hepa1c1c7 cells preincubated with test compound (CYP1A2 induction)
Format: cell-based, mouse
From the text: FIG. 1 illustrates how caffeine is primarily metabolized to paraxanthine via CYP1A2 enzyme in a human, according to some embodiments. The MEROD (methoxyresorufin-O-demethylase) assay measures the activity of the enzyme (CYP1A2) that converts methoxyresorufin (probe substrate) to resorufin (demethylation) in the presence of NADPH. The resulting resorufin concentration can be measured using a fluorescence reader by setting the excitation and emission wavelengths at 544 and 590 nm, respectively.
For MEROD assay in live cells, Hepa1c1c7 cells were cultured in either 6-well or 24-well-plates. For the 24-well plate experiment, after confluent cells were incubated for approximately 20 hours with either resorufin, nitro-resorufin, chloro-resorufin, 3-MC or DMSO (in triplicates), culture media was removed and 180 μL fresh culture media containing […] methoxyresorufin was added per well. After 1 hour incubation at 37° C., 100 μL aliquot was taken from each well and the formation of resorufin was measured by fluorescence. […] After 5 hours incubation at 37° C., 100 μL aliquot was taken from each well, centrifuged at 12,000 g at RT for ˜5 min and the supernatants were placed into wells of a 96-well fluorescence plate and the formation of resorufin was measured by fluorescence.

- formation of resorufin in live cells (MEROD assay) (Hepa1c1c7 cells incubated with 2 μM compound, compared to DMSO, 24-well and 6-well plate studies): significant difference
- formation of resorufin in live cells (MEROD assay) (Hepa1c1c7 cells incubated with 10 μM compound): no marked difference
SMILES: O=c1c2ccc(Cl)cc2nc2n1CCc1c-2[nH]c2ccccc12 [chloro-rutaecarpine]
